According to publication PMC5224920, “Assessing the mechanism and therapeutic potential of modulators of the human Mediator complex-associated protein kinases” (eLife, 2016):

Test system: 12 single or co-culture in vitro tissue models of primary cells
Assay: Culture/co-culture cell model panel, extracellular biomarkers (DiscoveRx); as to CCL2/MCP-1: reference of the scale not given here; as to CXCL8/IL-8: reference of the scale not given here; as to CXCL9/MIG: reference of the scale not given here; as to IL-1alpha: reference of the scale not given here; as to M-CSF: reference of the scale not given here; as to PBMC Cytotoxicity: reference of the scale not given here; as to SRB: reference of the scale not given here; as to sTNF-alpha: reference of the scale not given here
Type: cell-based, human
Conditions: for B cell Proliferation / PBMC Cytotoxicity / Secreted IgG / sIL-2 / sIL-6 / sIL-17A / sIL-17F / sTNF-alpha: BT
[1] = HDF3CGF stimulated fibroblasts, 1.00E0 nM
[2] = HDF3CGF stimulated fibroblasts, 1.00E1 nM
[3] = HDF3CGF stimulated fibroblasts, 1.00E2 nM
[4] = HDF3CGF stimulated fibroblasts, 1.00E3 nM

Cn1ncc2cc(-c3cnc(N)c(Cl)c3N3CCC4(CCNC4=O)CC3)ccc21 [CMPD 3]
SRB (BENo, 1.00E3 nM): 0.000914 | tPA (BENo, 1.00E3 nM): -0.008 | uPA (BENo, 1.00E3 nM): 0.00377 | CCL26/Eotaxin-3 (BENo, 1.00E4 nM): 0.042 | CD54/ICAM-1 (BENo, 1.00E4 nM): 0.016 | CD87/uPAR (BENo, 1.00E4 nM): 0.038 | CXCL8/IL-8 (BENo, 1.00E4 nM): 0.023 | CXCL9/MIG (BENo, 1.00E4 nM): 0.059 | CXCL10/IP-10 (BENo, 1.00E4 nM): 0.042 | CXCL11/I-TAC (BENo, 1.00E4 nM): 0.073 | EGFR (BENo, 1.00E4 nM): 0.00756 | HLA-DR (BENo, 1.00E4 nM): 0.014 | IL-1alpha (BENo, 1.00E4 nM): -0.053 | Keratin 8/18 (BENo, 1.00E4 nM): 0.041 | MMP-1 (BENo, 1.00E4 nM): -0.026 | MMP-9 (BENo, 1.00E4 nM): 0.010 | PAI-I (BENo, 1.00E4 nM): -0.144 | SRB (BENo, 1.00E4 nM): -0.006 | tPA (BENo, 1.00E4 nM): 0.015 | uPA (BENo, 1.00E4 nM): -0.00171 | CCL2/MCP-1 (BF4T, 1.00E0 nM): -0.034 | CCL26/Eotaxin-3 (BF4T, 1.00E0 nM): -0.012 | CD54/ICAM-1 (BF4T, 1.00E0 nM): 0.007 | CD90 (BF4T, 1.00E0 nM): -0.021 | CD106/VCAM-1 (BF4T, 1.00E0 nM): 0.067 | CXCL8/IL-8 (BF4T, 1.00E0 nM): 0.013 | IL-1alpha (BF4T, 1.00E0 nM): 0.00747 | Keratin 8/18 (BF4T, 1.00E0 nM): 0.00256 | MMP-1 (BF4T, 1.00E0 nM): 0.013 | MMP-3 (BF4T, 1.00E0 nM): 0.056 | MMP-9 (BF4T, 1.00E0 nM): 0.030 | PAI-I (BF4T, 1.00E0 nM): 0.049 | SRB (BF4T, 1.00E0 nM): 0.00349 | tPA (BF4T, 1.00E0 nM): 0.039 | uPA (BF4T, 1.00E0 nM): 0.035 | CCL2/MCP-1 (BF4T, 1.00E1 nM): -0.011 | CCL26/Eotaxin-3 (BF4T, 1.00E1 nM): -0.071 | CD54/ICAM-1 (BF4T, 1.00E1 nM): -0.035 | CD90 (BF4T, 1.00E1 nM): 0.005 | CD106/VCAM-1 (BF4T, 1.00E1 nM): -0.00425 | CXCL8/IL-8 (BF4T, 1.00E1 nM): 0.046 | IL-1alpha (BF4T, 1.00E1 nM): 0.008 | Keratin 8/18 (BF4T, 1.00E1 nM): 0.009 | MMP-1 (BF4T, 1.00E1 nM): -0.00365 | MMP-3 (BF4T, 1.00E1 nM): 0.023 | MMP-9 (BF4T, 1.00E1 nM): 0.007 | PAI-I (BF4T, 1.00E1 nM): -0.00638 | SRB (BF4T, 1.00E1 nM): 0.000434 | tPA (BF4T, 1.00E1 nM): 0.032 | uPA (BF4T, 1.00E1 nM): -0.000167 | CCL2/MCP-1 (BF4T, 1.00E2 nM): -0.034 | CCL26/Eotaxin-3 (BF4T, 1.00E2 nM): -0.085 | CD54/ICAM-1 (BF4T, 1.00E2 nM): -0.034 | CD90 (BF4T, 1.00E2 nM): 0.00329 | CD106/VCAM-1 (BF4T, 1.00E2 nM): -0.010 | CXCL8/IL-8 (BF4T, 1.00E2 nM): 0.040 | IL-1alpha (BF4T, 1.00E2 nM): -0.00155 | Keratin 8/18 (BF4T, 1.00E2 nM): 0.017 | MMP-1 (BF4T, 1.00E2 nM): -0.009 | MMP-3 (BF4T, 1.00E2 nM): 0.032 | MMP-9 (BF4T, 1.00E2 nM): -0.020 | PAI-I (BF4T, 1.00E2 nM): -0.00143 | SRB (BF4T, 1.00E2 nM): 0.00276 | tPA (BF4T, 1.00E2 nM): 0.041 | uPA (BF4T, 1.00E2 nM): 0.017 | CCL2/MCP-1 (BF4T, 1.00E3 nM): -0.042 | CCL26/Eotaxin-3 (BF4T, 1.00E3 nM): -0.098 | CD54/ICAM-1 (BF4T, 1.00E3 nM): -0.035 | CD90 (BF4T, 1.00E3 nM): 0.00842 | CD106/VCAM-1 (BF4T, 1.00E3 nM): -0.023 | CXCL8/IL-8 (BF4T, 1.00E3 nM): 0.030 | IL-1alpha (BF4T, 1.00E3 nM): -0.009 | Keratin 8/18 (BF4T, 1.00E3 nM): 0.034 | MMP-1 (BF4T, 1.00E3 nM): 0.000873 | MMP-3 (BF4T, 1.00E3 nM): 0.030 | MMP-9 (BF4T, 1.00E3 nM): -0.009 | PAI-I (BF4T, 1.00E3 nM): 0.022 | SRB (BF4T, 1.00E3 nM): 0.00179 | tPA (BF4T, 1.00E3 nM): 0.045 | uPA (BF4T, 1.00E3 nM): 0.019 | CCL2/MCP-1 (BF4T, 1.00E4 nM): -0.010 | CCL26/Eotaxin-3 (BF4T, 1.00E4 nM): -0.092 | CD54/ICAM-1 (BF4T, 1.00E4 nM): -0.042 | CD90 (BF4T, 1.00E4 nM): 0.017 | CD106/VCAM-1 (BF4T, 1.00E4 nM): 0.005 | CXCL8/IL-8 (BF4T, 1.00E4 nM): 0.022 | IL-1alpha (BF4T, 1.00E4 nM): -0.002 | Keratin 8/18 (BF4T, 1.00E4 nM): 0.038 | MMP-1 (BF4T, 1.00E4 nM): 0.00226 | MMP-3 (BF4T, 1.00E4 nM): 0.073 | MMP-9 (BF4T, 1.00E4 nM): 0.010 | PAI-I (BF4T, 1.00E4 nM): 0.013 | SRB (BF4T, 1.00E4 nM): 0.000467 | tPA (BF4T, 1.00E4 nM): 0.028 | uPA (BF4T, 1.00E4 nM): -0.035 | B cell Proliferation (1.00E0 nM): 0.00438 | PBMC Cytotoxicity (1.00E0 nM): 0.034 | Secreted IgG (1.00E0 nM): -0.074 | sIL-2 (1.00E0 nM): 0.110 | sIL-6 (1.00E0 nM): 0.008 | sIL-17A (1.00E0 nM): 0.110 | sIL-17F (1.00E0 nM): -0.037 | sTNF-alpha (1.00E0 nM): 0.089 | B cell Proliferation (1.00E1 nM): -0.011 | PBMC Cytotoxicity (1.00E1 nM): -0.016 | Secreted IgG (1.00E1 nM): 0.026 | sIL-2 (1.00E1 nM): 0.017 | sIL-6 (1.00E1 nM): -0.016 | sIL-17A (1.00E1 nM): 0.095 | sIL-17F (1.00E1 nM): -0.399 | sTNF-alpha (1.00E1 nM): -0.021 | B cell Proliferation (1.00E2 nM): -0.056 | PBMC Cytotoxicity (1.00E2 nM): -0.027 | Secreted IgG (1.00E2 nM): -0.165 | sIL-2 (1.00E2 nM): 0.084 | sIL-6 (1.00E2 nM): 0.046 | sIL-17A (1.00E2 nM): 0.184 | sIL-17F (1.00E2 nM): -0.384 | sTNF-alpha (1.00E2 nM): 0.022 | B cell Proliferation (1.00E3 nM): -0.058 | PBMC Cytotoxicity (1.00E3 nM): -0.050 | Secreted IgG (1.00E3 nM): -0.370 | sIL-2 (1.00E3 nM): -0.083 | sIL-6 (1.00E3 nM): -0.147 | sIL-17A (1.00E3 nM): 0.263 | sIL-17F (1.00E3 nM): -0.522 | sTNF-alpha (1.00E3 nM): -0.114 | B cell Proliferation (1.00E4 nM): -0.233 | PBMC Cytotoxicity (1.00E4 nM): -0.092 | Secreted IgG (1.00E4 nM): -0.611 | sIL-2 (1.00E4 nM): -0.213 | sIL-6 (1.00E4 nM): -0.493 | sIL-17A (1.00E4 nM): 0.164 | sIL-17F (1.00E4 nM): -0.874 | sTNF-alpha (1.00E4 nM): -0.249 | CCL2/MCP-1 [1]: -0.000698 | CD54/ICAM-1 [1]: 0.022 | CD106/VCAM-1 [1]: -0.007 | CXCL8/IL-8 [1]: -0.00379 | CXCL9/MIG [1]: 0.00441 | CXCL10/IP-10 [1]: 0.006 | CXCL11/I-TAC [1]: 0.016 | Collagen I [1]: 0.078 | Collagen III [1]: 0.045 | EGFR [1]: 0.070 | M-CSF [1]: 0.015 | MMP-1 [1]: 0.046 | PAI-I [1]: 0.072 | Proliferation_72hr [1]: -0.019 | SRB [1]: -0.009 | TIMP-1 [1]: 0.031 | TIMP-2 [1]: 0.091 | CCL2/MCP-1 [2]: -0.016 | CD54/ICAM-1 [2]: -0.00318 | CD106/VCAM-1 [2]: 0.013 | CXCL8/IL-8 [2]: -0.026 | CXCL9/MIG [2]: -0.00175 | CXCL10/IP-10 [2]: 0.035 | CXCL11/I-TAC [2]: -0.00346 | Collagen I [2]: 0.095 | Collagen III [2]: 0.043 | EGFR [2]: -0.010 | M-CSF [2]: -0.053 | MMP-1 [2]: 0.052 | PAI-I [2]: -0.000592 | Proliferation_72hr [2]: -0.139 | SRB [2]: -0.015 | TIMP-1 [2]: -0.019 | TIMP-2 [2]: 0.138 | CCL2/MCP-1 [3]: -0.095 | CD54/ICAM-1 [3]: -0.046 | CD106/VCAM-1 [3]: 0.00848 | CXCL8/IL-8 [3]: -0.030 | CXCL9/MIG [3]: -0.053 | CXCL10/IP-10 [3]: 0.038 | CXCL11/I-TAC [3]: -0.019 | Collagen I [3]: 0.072 | Collagen III [3]: 0.069 | EGFR [3]: -0.024 | M-CSF [3]: -0.078 | MMP-1 [3]: 0.030 | PAI-I [3]: -0.00555 | Proliferation_72hr [3]: -0.249 | SRB [3]: -0.018 | TIMP-1 [3]: -0.057 | TIMP-2 [3]: 0.140 | CCL2/MCP-1 [4]: -0.140 | CD54/ICAM-1 [4]: -0.051 | CD106/VCAM-1 [4]: 0.034 | CXCL8/IL-8 [4]: -0.084 | CXCL9/MIG [4]: -0.075 | CXCL10/IP-10 [4]: 0.033 | CXCL11/I-TAC [4]: -0.016 | Collagen I [4]: 0.079 | Collagen III [4]: 0.097
